This is an account of results in US20210270852A1, “Methods of Detecting Neuroaxonal Dystrophy Disorders Associated with Vitamin E Deficiency and Uses Thereof” (The Regents of the University of California, priority 2018, published 2021).

Series [1] in a line: Reference values of tocopherols, tocotrienols and metabolites in healthy grazing Thoroughbred horses (LC-MS). The format is in vivo, horse. As to the method: (§1) In particular, the levels of a panel of tocopherols and tocopherol metabolites were assessed by liquid chromatography-mass spectrometry (LC-MS) in samples obtained from eNAD affected horses and matched healthy controls. Reference ranges of α-TOH, γ-TOH, α-TOT, γ-TOT, α-CEHC, γ-CEHC, and α-CMBHC were determined from serum, plasma and urine samples obtained from 16 healthy adult Thoroughbred horses on pasture. Next a supplementation trial was performed employing samples from eNAD-affected horses and neurologically normal age and sex-matched controls. Levels were assessed at baseline and after administration of bioavailable RRR-alpha-tocopherol according to the sample collection schedule described (see e.g., FIG. 2).
(§2) Analytes were simultaneously quantified via ultra-performance liquid chromatography-tandem mass spectrometry (LC-MS). LC-MS analysis was carried out using a Bruker EVOQ LC-TQ Mass Spectrometer coupled with a Bruker Advance HPLC system (Bruker Corp, Freemont, Calif., USA). Mass spectral data for α- and γ-tocopherols and α- and γ-tocotrienols were acquired in the positive ion electrospray ionization (ESI) mode with the following retention times (RT) and scan events: γ-tocotrienol—RT 11.65 min, MRM 411.0>151.0 (CE 19.0V), α-tocotrienol—RT 12.0 min, MRM 425.1>165.1 (CE 20.0V), γ-tocopherol—RT 13.3 min, MRM 417.2>151.0 (CE 25.0V), 5-methyl-D3,7-methyl-D3 (TD6)—RT 13.8 min, MRM 437.4>171.0 (CE 27.0V), and α-tocopherol—RT 13.8 min, MRM 431.2>165.0 (CE 25.0V). Mass spectral data for α- and γ-CEHC and α-CMBHC were acquired in the negative ion ESI mode with the following retention times (RT) and scan events: α-CMBHC—RT 7.45 min, MRM 319.1>150.1 (CE 22.0V), α-CEHC—RT 5.70 min, MRM 277.0>233.1 (CE 14.0V), and γ-CEHC—RT 5.30 min, MRM 263.1>219.1 (CE13.0V). Quantification was carried out using a 10-point calibration curve covering the range from 0.1 ng/mL to 5,000 ng/mL and linear regression. Each level of calibration standard contained the internal standard TD6 at 100 ng/mL and CUDA at 2 ng/mL, matching their final concentrations in the analysis samples.

The nature of series [2]: Supplementation trial: serum levels in eNAD-affected and control horses at baseline and after bioavailable RRR-alpha-tocopherol (LC-MS). The series is classed as in vivo, horse. As to the method: This example describes investigations into the role of metabolism of α-TOH in horses affected with eNAD/EDM. Accordingly, the rate of α-TOH and γ-TOH metabolism was determined through the measurement of CEHCs in healthy and eNAD-affected horses following α-TOH supplementation.
as §1, §2
Simultaneous quantification of α-TOH, γ-TOH, α-tocotrienol, γ-tocotrienol, α-CEHC, γ-CEHC, and α-CMBHC has not been previously performed in the horse. Data was Log-transformed. Correspondence between sample types (e.g., plasma vs. serum) was evaluated and statistical testing by Mixed-model ANOVA was performed (fixed variables=disease, time; randomized variable=horse; 2-way interactions; p<0.05).

A short description of series [3]: Initial trials: detected range of plasma vitamin E metabolites (LC-MS). The format is in vivo, horse. On the procedure: as §2
The limit of detection (ng/mL) and detected range (ng/mL), respectively, for each plasma vitamin E metabolite measured in these initial trials were as follows: α-TOH (0.1; 500-1000), γ-TOH (0.2; 10-15), α-tocotrienol (0.2; 0.2-0.6), γ-tocotrienol (0.2; 5-10), α-CMBHC (<0.05; 0.1-0.4), γ-CEHC (<0.05; 0.2-0.6), and α-CEHC (<0.05; 0.1-0.2).

The conditions of series [4]: earlier study; cited from earlier work.
Setting [5] is: serum, healthy grazing TBs, tocotrienols.

As to `CC(C)=CCC/C(C)=C/CC/C(C)=C/CC[C@]1(C)CCc2cc(O)c(C)c(C)c2O1` [γ-TOT, gamma-tocotrienol], in series [1] (setting [5]), the “mean value in healthy grazing TBs” value worked out at 0.13 ± 0.36 ng/mL, the “median value in healthy grazing TBs” value turned out to be 0.02 ng/mL and the “range of values in healthy grazing TBs” value lay in the range of 0.02 to 1.79 ng/mL. Besides, in series [2] (serum, eNAD vs control horses, over time), the “difference in serum tocotrienol levels with time or disease” value is “no significant difference”. In addition, the “detected range of plasma vitamin E metabolite” value (“detected range” below) in series [3] (plasma, initial trials) was 5 to 10 ng/mL.

On to `Cc1c(O)cc2c(c1C)OC(C)(CCC(=O)O)CC2` (stereo not shown) [γ-CEHC, gamma-carboxyethyl-hydroxychroman], for which, in series [1] (in vivo), the “mean value for healthy grazing TBs” value is given as 0.43±0.18, the “median value for healthy grazing TBs” value is 0.38 and the “range of values for healthy grazing TBs” value is 0.26-0.89. Further, in series [3] (in vivo), the “detected range” value fell in the range of 0.2 to 0.6 ng/mL.

In the case of alpha-tocotrienol [α-TOT], in series [1] (in vivo), the “mean value in healthy grazing TBs” value stood at 0.31 ± 0.36 ng/mL, the “median value in healthy grazing TBs” value came out at 0.15 ng/mL and the “range of values in healthy grazing TBs” value fell in the range of 0.004 to 1 ng/mL. The “difference in serum tocotrienol levels with time or disease” value in series [2] (in vivo) was “no significant difference”. Also, the “detected range” value in series [3] (in vivo) lay in the range of 0.2 to 0.6 ng/mL.

Consider `Cc1c(C)c2c(c(C)c1O)CCC(C)(CCCC(C)C(=O)O)O2` (stereo not drawn) [α-CMBHC, 2-(4-Carboxy-4-methylbutyl)-6-hydroxy-2,5,7,8-tetramethylchroman], for which, in series [1] (Thoroughbred, horse, in vivo), the “mean value for healthy grazing TBs” value is on record as 0.72±0.37, the “median value for healthy grazing TBs” value was determined as 0.6 and the “range of values for healthy grazing TBs” value was 0.32-1.71. Also, the “Serum α-CMBHC (median, range)” value in series [2] (horse, in vivo, 56 day) was 0.32 (0.12-0.40) ng/mL. Moreover, the concentration at 56 day in series [2] (horse, in vivo, Serum α-CMBHC (median, range)) is 0.28 ng/mL. Moreover, the “detected range” value in series [3] (horse, in vivo) was 0.1 to 0.4 ng/mL.

With `Cc1c(C)c2c(c(C)c1O)CC[C@@](C)(CCC[C@H](C)CCC[C@H](C)CCCC(C)C)O2` [α-TOH, alpha-tocopherol, reference compound], in series [1] (in vivo), the “mean value for healthy grazing TBs” value came to 4292±892, the “median value for healthy grazing TBs” value is given as 4348 and the “range of values for healthy grazing TBs” value is 2855-6299. For the same compound, the “rate of α-TOH metabolism in eNAD horses vs control horses” value in series [2] (in vivo) is “faster rates than control horses”. The “detected range” value in series [3] (in vivo) is 500 to 1000 ng/mL. Besides, in series [4], the “α-TOH absorption indices, eNAD-affected vs unaffected horses” value was “no significant differences”.

For the compound `Cc1c(C)c2c(c(C)c1O)CCC(C)(CCC(=O)O)O2` (stereo not drawn) [α-CEHC, alpha-carboxyethyl-hydroxychroman], in series [1] (in vivo), the “mean value for healthy grazing TBs” value is 0.33±0.12, the “median value for healthy grazing TBs” value is 0.31 and the “range of values for healthy grazing TBs” value is given as 0.18-0.67. Also, the “detected range” value in series [3] (in vivo) fell in the range of 0.1 to 0.2 ng/mL.

Consider `Cc1c(O)cc2c(c1C)O[C@](C)(CCC[C@H](C)CCC[C@H](C)CCCC(C)C)CC2` [γ-TOH, gamma-tocopherol], for which, in series [1] (Thoroughbred, horse, in vivo), the “mean value for healthy grazing TBs” value was 27.1±9.82, the “median value for healthy grazing TBs” value turned out to be 25.6 and the “range of values for healthy grazing TBs” value was 10.3-44.7. In addition, in series [3] (horse, in vivo), the “detected range” value was in the range of 10 to 15 ng/mL.
